In paper PMC11013419, “Understanding Antidiabetic Potential of Oligosaccharides from Red Alga Dulse Devaleraea inkyuleei Xylan by Investigating α-Amylase and α-Glucosidase Inhibition” (Molecules, 2024):

Key:
α-glucosidase = system: α-glucosidase; set-up: method as in doi:10.1007/s12257-017-0049-8; settings: at 10 mg/mL; cited from earlier work
MGAM [1] = biological target: T1, MGAM (Homo sapiens, UniProt O43451); assay: Kinetics of MGAM inhibition (Michaelis–Menten, Lineweaver–Burk); assay type: biochemical; settings: for Inhibition Type (MGAM): Lineweaver–Burk plot; for Vmax^app, inhibitor concentration A / Vmax^app, inhibitor concentration B / Vmax^app, inhibitor concentration C: MGAM, without inhibitor 0.089; for Vmax^app, inhibitor concentration A: A: X2 1.49, X3 1.63, DX3 1.33, DX4 1.28 mg/mL; for Vmax^app, inhibitor concentration B: B: X2 2.79, X3 4.08, DX3 3.32, DX4 3.19 mg/mL; for Vmax^app, inhibitor concentration C: C: X2 3.73, X3 10.19, DX3 8.30, DX4 7.98 mg/mL; for Ki: competitive inhibition constant
T1 construct: made in house
T1 sequence (O43451 whole entry): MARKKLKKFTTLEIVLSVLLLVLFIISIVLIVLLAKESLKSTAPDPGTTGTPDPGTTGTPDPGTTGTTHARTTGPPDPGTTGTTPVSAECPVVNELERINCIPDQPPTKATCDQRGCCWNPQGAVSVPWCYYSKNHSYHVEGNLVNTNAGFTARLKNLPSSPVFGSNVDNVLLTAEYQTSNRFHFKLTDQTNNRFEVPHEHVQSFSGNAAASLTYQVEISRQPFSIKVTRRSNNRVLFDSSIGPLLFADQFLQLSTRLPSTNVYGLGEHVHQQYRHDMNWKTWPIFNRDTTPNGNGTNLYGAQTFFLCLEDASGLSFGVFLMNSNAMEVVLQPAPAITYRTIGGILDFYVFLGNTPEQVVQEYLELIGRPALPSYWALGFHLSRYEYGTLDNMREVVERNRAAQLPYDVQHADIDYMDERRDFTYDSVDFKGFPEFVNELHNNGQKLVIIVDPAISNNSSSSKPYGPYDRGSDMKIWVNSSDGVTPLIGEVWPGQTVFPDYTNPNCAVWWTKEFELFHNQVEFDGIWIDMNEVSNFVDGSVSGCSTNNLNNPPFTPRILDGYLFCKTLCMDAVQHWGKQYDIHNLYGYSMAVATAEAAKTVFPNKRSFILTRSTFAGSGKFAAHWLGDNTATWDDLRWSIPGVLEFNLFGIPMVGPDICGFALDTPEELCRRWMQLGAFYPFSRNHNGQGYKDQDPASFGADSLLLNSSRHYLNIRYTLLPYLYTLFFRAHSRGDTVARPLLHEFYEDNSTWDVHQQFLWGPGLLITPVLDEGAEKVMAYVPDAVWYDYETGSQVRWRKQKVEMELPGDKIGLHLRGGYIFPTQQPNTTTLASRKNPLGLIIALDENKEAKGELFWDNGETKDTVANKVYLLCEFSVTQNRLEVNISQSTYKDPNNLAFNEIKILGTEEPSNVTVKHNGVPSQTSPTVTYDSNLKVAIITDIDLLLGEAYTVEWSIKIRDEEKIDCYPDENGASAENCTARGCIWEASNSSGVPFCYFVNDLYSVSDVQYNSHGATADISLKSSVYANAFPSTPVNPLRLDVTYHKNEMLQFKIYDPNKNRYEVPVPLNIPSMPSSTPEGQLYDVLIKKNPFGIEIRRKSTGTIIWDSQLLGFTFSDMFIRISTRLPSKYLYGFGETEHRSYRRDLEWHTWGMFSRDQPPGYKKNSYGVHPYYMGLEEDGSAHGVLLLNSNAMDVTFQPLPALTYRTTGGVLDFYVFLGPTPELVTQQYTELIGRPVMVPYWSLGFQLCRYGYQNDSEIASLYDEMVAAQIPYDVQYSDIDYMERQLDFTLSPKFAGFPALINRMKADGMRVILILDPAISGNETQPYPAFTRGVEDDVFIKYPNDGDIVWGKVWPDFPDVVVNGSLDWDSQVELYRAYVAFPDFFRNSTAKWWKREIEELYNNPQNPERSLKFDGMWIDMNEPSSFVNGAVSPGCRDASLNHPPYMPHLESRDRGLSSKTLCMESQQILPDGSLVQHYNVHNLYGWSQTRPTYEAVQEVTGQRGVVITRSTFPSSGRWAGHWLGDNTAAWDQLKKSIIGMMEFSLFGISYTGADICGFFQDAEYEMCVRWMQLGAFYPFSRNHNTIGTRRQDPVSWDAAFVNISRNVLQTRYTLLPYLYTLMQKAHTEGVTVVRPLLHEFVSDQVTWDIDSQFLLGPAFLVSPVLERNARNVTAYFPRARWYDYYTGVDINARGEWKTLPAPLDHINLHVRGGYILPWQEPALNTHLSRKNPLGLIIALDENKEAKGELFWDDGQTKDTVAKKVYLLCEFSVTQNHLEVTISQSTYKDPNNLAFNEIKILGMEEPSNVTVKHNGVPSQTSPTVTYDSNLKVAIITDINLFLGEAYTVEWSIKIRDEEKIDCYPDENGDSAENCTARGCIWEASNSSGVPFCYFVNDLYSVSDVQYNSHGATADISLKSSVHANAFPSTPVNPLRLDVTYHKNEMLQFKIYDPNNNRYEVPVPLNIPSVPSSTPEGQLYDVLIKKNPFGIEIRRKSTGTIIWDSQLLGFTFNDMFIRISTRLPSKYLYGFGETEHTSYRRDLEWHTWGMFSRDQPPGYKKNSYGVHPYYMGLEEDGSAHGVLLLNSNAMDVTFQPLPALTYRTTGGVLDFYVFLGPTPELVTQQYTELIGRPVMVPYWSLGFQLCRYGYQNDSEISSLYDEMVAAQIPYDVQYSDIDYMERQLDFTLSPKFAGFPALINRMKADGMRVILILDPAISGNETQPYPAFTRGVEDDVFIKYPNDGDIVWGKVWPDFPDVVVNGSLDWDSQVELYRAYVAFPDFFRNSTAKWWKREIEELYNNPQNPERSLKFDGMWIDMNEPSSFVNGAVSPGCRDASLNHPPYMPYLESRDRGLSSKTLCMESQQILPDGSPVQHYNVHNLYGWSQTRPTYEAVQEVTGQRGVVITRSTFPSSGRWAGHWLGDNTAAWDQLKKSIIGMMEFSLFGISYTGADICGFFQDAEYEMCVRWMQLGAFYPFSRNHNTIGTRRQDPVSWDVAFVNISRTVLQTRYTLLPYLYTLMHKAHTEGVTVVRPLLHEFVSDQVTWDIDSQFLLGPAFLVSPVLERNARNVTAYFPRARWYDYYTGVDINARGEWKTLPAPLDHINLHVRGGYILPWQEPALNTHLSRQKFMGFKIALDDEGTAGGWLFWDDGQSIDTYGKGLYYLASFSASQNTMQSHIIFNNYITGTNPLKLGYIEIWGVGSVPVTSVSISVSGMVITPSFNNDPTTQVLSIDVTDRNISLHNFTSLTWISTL
Method: (§1) For this experiment, recombined human maltase-glucoamylase (MGAM) was prepared as previously reported and dissolved in 0.1 M phosphate buffer (pH 6.4) to produce a solution at 0.5 U/mL. Pre-incubation was initiated by mixing 20 µL of MGAM solution with 20 µL of inhibitor or distilled water for 10 min at 37 °C. Then, 40 µL of 8 mM maltose or phosphate buffer was added and the mixture was incubated at 37 °C for 10 min, and the reaction was stopped by boiling for 10 min and cooling in an ice bath. Glucose was quantified using a Glucose CII-test (Wako Pure Chemical Industries, Osaka, Japan). The 20 µL reaction mixture was added to a 100 µL of Glucose CII-test. The reaction proceeded for 10 min at 37 °C, and the absorbance at 492 nm was measured. The inhibition was analysed at different inhibitor and substrate concentrations. The half-maximum inhibition concentration (IC50) was calculated using nonlinear regression. The MGAM inhibitory activity was calculated as follows: MGAM inhibitory activity=1−As−A0/Ac×100 where As represents the absorbance of the sample, Ac is the absorbance of the control without the inhibitor, and A0 is the absorbance of the sample without MGAM.
To study the kinetics of MGAM and α-amylase inhibition by XOS, the initial velocity in absorbance/min (ΔOD/min) was calculated at different substrate concentrations (0 to 10 mg/mL starch concentration for α-amylase and 0 to 8 mM maltose concentration for MGAM) and XOS concentrations. The values of initial velocity at different substrate concentrations at each XOS concentration was plotted (Michaelis–Menten plot), as well as the double reciprocal plot at each XOS concentration (Lineweaver–Burk plot).
The Michaelis–Menten equation for competitive inhibition is given as follows: v=Vmax×S/Km1+I/Ki+S=Vmaxapp×S/Kmapp+S
And the corresponding Lineweaver–Burk equation is given as follows: 1/v=Km/Vmax1+I/Ki1/S+1/Vmax where v is the initial velocity, Vmax is the maximum initial reaction velocity, I is the concentration of the inhibitor, S is the concentration of the substrate, Km is the Michaelis constant, and Ki is the competitive inhibition constant.

α-amylase = biological target: T2, α-amylase (Sus scrofa, UniProt P00690); assay: Kinetics of α-amylase inhibition (Michaelis–Menten, Lineweaver–Burk); assay type: biochemical, porcine
T2 construct: α-amylase from porcine pancreas (EC 3.2.1.1), type VI-B; purchased Sigma Aldrich type VI-B; host or cells: porcine pancreas
T2 sequence (P00690 16-511): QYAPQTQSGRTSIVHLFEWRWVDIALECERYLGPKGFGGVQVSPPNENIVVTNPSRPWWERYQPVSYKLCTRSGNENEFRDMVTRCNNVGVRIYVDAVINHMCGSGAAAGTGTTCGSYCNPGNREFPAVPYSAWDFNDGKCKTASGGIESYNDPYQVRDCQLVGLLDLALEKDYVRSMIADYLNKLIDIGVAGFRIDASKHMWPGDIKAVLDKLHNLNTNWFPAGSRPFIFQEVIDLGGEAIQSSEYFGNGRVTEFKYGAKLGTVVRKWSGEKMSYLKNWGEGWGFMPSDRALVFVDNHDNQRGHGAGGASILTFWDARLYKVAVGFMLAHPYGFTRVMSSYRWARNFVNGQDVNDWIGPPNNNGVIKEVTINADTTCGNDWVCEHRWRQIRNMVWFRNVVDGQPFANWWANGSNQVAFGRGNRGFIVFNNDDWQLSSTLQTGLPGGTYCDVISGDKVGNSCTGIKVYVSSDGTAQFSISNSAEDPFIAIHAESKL
Method: The α-amylase from porcine pancreas solution was freshly prepared by mixing enzyme powder with 20 mM phosphate buffer (pH 6.9) containing 6.7 mM NaCl to produce a solution at 3 U/mL [39]. Pre-incubation was initiated by mixing 20 µL of α-amylase solution with 20 µL of inhibitor or distilled water for 10 min at 37 °C. Then, 20 µL of 1% (w/v) starch (prepared in 20 mM phosphate buffer (pH 6.9) containing 6.7 mM NaCl and heated at 100 °C for 10 min) or phosphate buffer was added, and the mixture was incubated at 37 °C for 10 min. The reaction was stopped by boiling the mixture for 10 min and cooling in an ice bath. The concentration of reducing sugars was calculated by the DNS method. The inhibition was analysed at different inhibitor and substrate concentrations. The half-maximum inhibition concentration (IC50) was calculated using nonlinear regression. The α-amylase inhibitory activity was calculated as follows: α-amylase inhibitory activity=1−As−A0/Ac×100 where As represents the absorbance of the sample, Ac is the absorbance of the control without the inhibitor, and A0 is the absorbance of the sample without α-amylase. […]

[2] = biological target: T3, α-amylase from porcine pancreas (Sus scrofa, UniProt P00690); assay: α-Amylase inhibition assay (starch, DNS method); assay type: biochemical; settings: for IC50: porcine pancreas α-amylase, 1% starch, 37 °C, pH 6.9
T3 construct: α-amylase from porcine pancreas (EC 3.2.1.1), type VI-B; purchased Sigma Aldrich type VI-B; host or cells: porcine pancreas
T3 sequence (P00690 16-511): T2 sequence (P00690 16-511)
Method: The α-amylase from porcine pancreas solution was freshly prepared by mixing enzyme powder with 20 mM phosphate buffer (pH 6.9) containing 6.7 mM NaCl to produce a solution at 3 U/mL [39]. Pre-incubation was initiated by mixing 20 µL of α-amylase solution with 20 µL of inhibitor or distilled water for 10 min at 37 °C. Then, 20 µL of 1% (w/v) starch (prepared in 20 mM phosphate buffer (pH 6.9) containing 6.7 mM NaCl and heated at 100 °C for 10 min) or phosphate buffer was added, and the mixture was incubated at 37 °C for 10 min. The reaction was stopped by boiling the mixture for 10 min and cooling in an ice bath. The concentration of reducing sugars was calculated by the DNS method. The inhibition was analysed at different inhibitor and substrate concentrations. The half-maximum inhibition concentration (IC50) was calculated using nonlinear regression. The α-amylase inhibitory activity was calculated as follows: α-amylase inhibitory activity=1−As−A0/Ac×100 where As represents the absorbance of the sample, Ac is the absorbance of the control without the inhibitor, and A0 is the absorbance of the sample without α-amylase.

[3] = biological target: T4, recombined human maltase-glucoamylase (MGAM) (Homo sapiens, UniProt O43451); assay: MGAM inhibition assay (glucose released from maltose); assay type: biochemical; settings: maltose substrate, 37 °C, pH 6.4
T4 construct: made in house
T4 sequence (O43451 whole entry): as the sequence (O43451 whole entry) above
Method: as §1

MGAM [4] = biological target: MGAM; set-up: method as in PMID 22058037; settings: as reported; cited from earlier work

Row | SMILES | inhibition rate (α-glucosidase) [%] | Inhibition Type (MGAM) (MGAM [1]) | Vmax^app, inhibitor concentration A (MGAM [1]) [DO/min] | Vmax^app, inhibitor concentration B (MGAM [1]) [DO/min] | Vmax^app, inhibitor concentration C (MGAM [1]) [DO/min] | Ki (MGAM [1]) [mM] | IC50 [3] [mM] | also measured
1 | OC[C@H]1O[C@@H](O)[C@H](O)[C@@H](O[C@@H]2O[C@H]3CO[C@@H]([C@@H]2O)[C@@H]3O[C@@H]2O[C@H](CO)[C@H](O)[C@H](O[C@@H]3O[C@H]4CO[C@@H]([C@@H]3O)[C@@H]4O[C@@H]3O[C@H](CO)[C@H](O)[C@H](O[C@@H]4O[C@H]5CO[C@@H]([C@@H]4O)[C@@H]5O)[C@H]3O)[C@H]2O)[C@H]1O [neoagarohexaose] | 17.0 |  |  |  |  |  |  | 
2 | OC1COC(OC2COC(O)C(O)C2O)C(O)C1O (stereo not drawn) [X2, β-(1→4)-xylobiose] |  | Competitive | 0.086 | 0.086 | 0.086 | 53.9 | 45 | Inhibition type (α-amylase) (α-amylase; Lineweaver–Burk plot): competitive; Vmax^app (α-amylase) (α-amylase; X2 12.42 mg/mL, X3 13.58 mg/mL, without inhibitor 0.056): 0.061 DO/min; IC50 [2]: 64 mM
3 | OC[C@H]1OC(O)[C@H](O)[C@@H](O[C@@H]2O[C@H]3CO[C@@H]([C@@H]2O)[C@@H]3O)[C@H]1O (stereo partly shown) [neoagarobiose] | 35.3 |  |  |  |  |  |  | 
4 | C[C@H]1O[C@H](O[C@H]2[C@H](O)[C@@H](O)[C@@H](O[C@H]3[C@H](O)[C@@H](O)C(O)O[C@@H]3CO)O[C@@H]2CO)[C@H](O)[C@@H](O)[C@@H]1N[C@H]1C=C(CO)[C@@H](O)[C@H](O)[C@H]1O (stereo partly shown) [Acarbose] |  |  |  |  |  |  |  | Ki (MGAM [4]): 0.062 mM; Ki for MGAM (MGAM [4]): 40 µg/mL
5 | OC[C@H]1O[C@@H](O)[C@H](O)[C@@H](O[C@@H]2O[C@H]3CO[C@@H]([C@@H]2O)[C@@H]3O[C@@H]2O[C@H](CO)[C@H](O)[C@H](O[C@@H]3O[C@H]4CO[C@@H]([C@@H]3O)[C@@H]4O)[C@H]2O)[C@H]1O [neoagarotetraose] | 33.2 |  |  |  |  |  |  | 
6 | OC1COC(OC2C(O)COC(OC3COC(O)C(O)C3O)C2O)C(O)C1O (stereo not drawn) [DX3, β-(1→3)-xylosyl-β-(1→4)-xylobiose] |  | Competitive | 0.101 | 0.093 | 0.102 | 44.2 | 32.3 | IC50 [2]: 128 mM
7 | OC1COC(OC2C(O)COC(OC3COC(OC4COC(O)C(O)C4O)C(O)C3O)C2O)C(O)C1O (stereo not drawn) [DX4, β-(1→3)-xylosyl-β-(1→4)-xylotriose] |  | Competitive | 0.102 | 0.105 | 0.102 | 42.7 | 23.6 | inhibition at 10640 µg/mL ([2]; at 10.64 mg/mL): 2.9%
